Experiments:
C. acnes strain K8 = test: Minimum inhibitory concentration (MIC) of cosmetic excipients, strain K8; type: cell-based, Cutibacterium acnes; settings: % w/vol, incubated anaerobically for 3 days at 37° C., scored visually for growth
Experimental: (§1) In microbiology, the MIC is the lowest concentration of a chemical which prevents visible growth of bacterium. The resulted MIC value depends both on the microorganism and the test compound. The MIC is determined by preparing concentrations series of the test compound in vitro, incubating the solutions with the separate batches of cultured bacteria, and measuring the results using agar dilution or broth microdilution. For the experiments with C. acnes strains C3 and K8, media comprising yeast extract soy peptone and dextrose were used. The MIC is determined by turbidity.
(§2) A total of 125 cosmetic excipients were tested for their compatibility with C. acnes strains C3 and K8. Hydrophilic compounds were tested in a 96-well plate liquid broth format, poorly soluble compounds were pre-dissolved in DMSO before dilution in liquid broth and hydrophobic or solid compounds were tested in an agar well diffusion test assay. The different dilutions of the test excipients in media were prepared in Falcon tubes and then distributed in a deep well plate using a multistepper. Each well received 1.2 ml and was subsequently inoculated with 120 μl of C. acnes bacteria suspension (strain C3 and K8). From the deep well plate 200 μl were transferred in each well of a clear 96 well replicate plate. The leftover was discarded. The plates were then incubated anaerobically for 3 days at 37° C. Following incubation, the test plates were visually examined and wells were scored for growth or complete growth inhibition to define the minimum inhibitory concentration.
(§3) These excipients are listed in the below table with their compatibility values for C. acnes strains C3 and K8. The compatibility values represent the MIC value of the listed ingredients with the tested C. acnes strains. At this concentration [% w/vol] the tested compound starts interfering with the growth of the tested strains. The compounds can be used in formulations at concentrations below this concentration.

C. acnes strain C3 = test: Minimum inhibitory concentration (MIC) of cosmetic excipients, strain C3; type: cell-based, Cutibacterium acnes; settings: % w/vol, incubated anaerobically for 3 days at 37° C., scored visually for growth
Experimental: as §1, §2, §3

Compound | COMPATABILITY VALUE K8 [%] (C. acnes strain K8) | COMPATABILITY VALUE C3 [%] (C. acnes strain C3)
CCCCCCC(O)CO (centres unmarked) [caprylyl glycol] | 0.18% | 0.18%
O=C(O)CC(O)(CC(=O)O)C(=O)O [citric acid] | 0.08% | 0.33%
CCO [ethanol] | 3.75% | 3.75%
CC(CO)CO [methylpropanediol] | 4.00% | 4.00%
CC(=O)Oc1c(C)c(C)c2c(c1C)CCC(C)(CCC[C@H](C)CCC[C@H](C)CCCC(C)C)O2 (some centres unmarked) [tocopheryl acetate] | 1.00% | 1.00%
ethylhexyl cocoate | 10.00% | 10.00%
tocopherol | 1.50% | 1.50%
